Data: publication PMC7564829, “Potent Broad-Spectrum Antibacterial Activity of Amphiphilic Peptides against Multidrug-Resistant Bacteria” (Microorganisms, 2020)

How the values were obtained:
E. coli ATCC 25922 = assay: microbe, parasite or virus in culture; type: cell-based
Protocol: (§1) Experiments were performed with two biological replicates.

[1] = test system: MDR E. coli B2 (mcr-1 + blaNDM-5); assay: microbe, parasite or virus in culture; type: cell-based
Protocol: as §1

[2] = test system: S. aureus 215 (cfr + LZD^R); assay: microbe, parasite or virus in culture; type: cell-based; conditions: S. aureus 215 (cfr + LZD^R)
Protocol: as §1

S. aureus ATCC 29213 = assay: microbe, parasite or virus in culture; type: cell-based
Protocol: as §1

[3] = test system: S. enteritidis ATCC 13076; assay: microbe, parasite or virus in culture; type: cell-based
Protocol: as §1

E. coli 1F28 (tet(X4)) = assay: MIC/MBC, broth micro-dilution; type: cell-based; conditions: E. coli 1F28 (tet(X4))
Protocol: as §1

E. coli B3-1 (tet(X4)) = assay: MIC/MBC, broth micro-dilution; type: cell-based; conditions: E. coli B3-1 (tet(X4))
Protocol: as §1

E. faecalis A4 (VRE) = assay: MIC/MBC, broth micro-dilution; type: cell-based; conditions: E. faecalis A4 (VRE)
Protocol: as §1

E. coli 1F16 = assay: MIC, tigecycline-resistant clinical isolate; type: cell-based; conditions: E. coli 1F16, feces, tigecycline-resistant clinical isolate; broth micro-dilution
Protocol: as §1

E. coli 2W25 = assay: MIC, tigecycline-resistant clinical isolate; type: cell-based; conditions: E. coli 2W25, water, tigecycline-resistant clinical isolate; broth micro-dilution
Protocol: as §1

Shigella 1F25 = assay: MIC, tigecycline-resistant clinical isolate; type: cell-based; conditions: Shigella 1F25, feces, broth micro-dilution
Protocol: as §1

E. coli 1F28 [4] = type: cell-based; conditions: E. coli 1F28 and 1A34; 10 mM in MHB
[5] = Hydrophobicity by RP-HPLC (percent acetonitrile at elution); type: physicochemical; conditions: acetonitrile in water, 0.1% (v/v) TFA, higher percent = higher hydrophobicity
Protocol: All peptides used in this study were synthesized by GL Biochem (Shanghai, China) using a solid phase peptide synthesis (SPPS) method, and their accurate molecular weights were determined by matrix-assisted laser desorption/ionization time-of-flight mass spectrometry (MALDI-TOF MS). The peptide purity (>95%) and retention time were determined by reversed-phase high-performance liquid chromatography (HPLC).
A collection of tryptophan-rich linear peptides on the basis of MP196 (RWRWRW-NH2) was designed by increasing peptide length or positive charge or hydrophobicity, replacing amino acids and/or N-terminal acetylation (Table 1). These peptides were synthesized via solid-phase peptide synthesis (SPPS), purified by reverse-phase high-performance liquid chromatography (RP-HPLC) (Figure S1) and validated by matrix-assisted laser desorption/ionization time-of-flight mass spectrometry (MALDI-TOF MS) (Figure S2). […] All engineered peptides belong to cationic AMPs, with 3 or 6 net charges. The percentage of acetonitrile at RP-HPLC elution was regarded as a relative measure of peptides’ hydrophobicity. […] The hydrophobicity order was listed as follows: WRK-12 > WL-9 > WR-6 > WV-9 > KW-6 > WKK-12 > WR-12 > MP196 > WK-6.

E. coli 1F28 [6] = assay: Thermal and pH stability (residual antibacterial activity by MIC); type: physicochemical; conditions: residual MIC against E. coli 1F28
From the text: Thermal, pH and proteolytic stability.

E. coli 1F28 [7] = assay: LPS, lipids or NAC inhibition assay (MIC); type: cell-based
From the text: Lipopolysaccharides (LPS), lipids or NAC inhibition assay.

E. coli 1F28 [8] = assay: Cytoplasmic membrane potential (DiSC3(5)); type: cell-based; conditions: 0 to 128 μg/mL, 60 min
Protocol: A fluorescent probe DiSC3(5) (Aladdin, Shanghai, China) was utilized to evaluate the effect of WRK-12 on bacterial membrane potential. E. coli 1F28 cells were probed with 3,3′-dipropylthiadicarbocyanine iodide (DiSC3(5), 0.5 μM) for 30 min, and then treated with WRK-12 (0 to 128 μg/mL) or colistin (128 μg/mL) for 60 min. Subsequently, the dissipated membrane potential was determined by monitoring the fluorescence intensity (λexcitation = 622 nm, λemission = 670 nm) using a Microplate reader (Tecan, Männedorf, Switzerland).

E. coli 1F28 [9] = assay: ROS measurements (DCFH-DA); type: cell-based; conditions: 0 to 128 μg/mL, 60 min
Protocol: 2′,7′-Dichlorodihydrofluorescein diacetate (DCFH-DA, 10 μM) was incubated with E. coli 1F28 cells for 30 min. After washing with 0.01 M PBS, the probed cells were mixed with WRK-12 (0 to 128 μg/mL) or colistin (128 μg/mL) for 60 min. The ROS levels were assessed by monitoring the fluorescence intensity (λexcitation = 488 nm, λemission = 525 nm) using a Microplate reader (Tecan, Männedorf, Switzerland).

E. coli 1F28 biofilm = assay: Prevention of biofilm formation (crystal violet); type: cell-based; conditions: 24 h
Protocol: The prevention of biofilm formation was assessed as described previously. Briefly, bacteria (1 × 10^5 CFUs per mL) were exposed to WRK-12 solutions (with final concentrations ranging from 0.25 to 32 μg/mL). As an untreated control, bacteria were exposed to MHB without drugs. After 24 h incubation at 37 °C in a humidified atmosphere, planktonic bacteria were removed by phosphate buffer solution (PBS). Biofilms were fixed with methanol for 15 min, then sucked out the fixative and air dry naturally. Then, biofilms were stained with 0.1% crystal violet for 15 min, washed and dried naturally. Finally, 33% acetic acid was used to dissolve crystal violet. The optical density at 570 nm was determined as a measure of biofilm mass.

[10] = in 0.01 M PBS or water; compared among four active AMPs
[11] = broth micro-dilution CLSI 2018, MHB, 18 h, 37 °C
[12] = lowest concentration killing 99.9%, plated on MHA

Substance Ac-WRLRWKTRWRLK-NH2 [WRK-12] has an MBC (E. coli ATCC 25922; ATCC 25922, 4 h) of 8 µg/mL, an MIC (E. coli ATCC 25922; ATCC 25922, 18 h) of 4 µg/mL and an MBC ([1]; MDR B2 (mcr-1 + blaNDM-5, 4 h)) of 4 µg/mL. For the same substance, the “MIC decrease relative to WL-9” value ([1]; MDR E. coli B2, insertion of three positive amino acids in WL-9) was 4 fold, the MIC [2, 11] was 2 µg/mL and the MBC [2, 12] was 2 µg/mL. For the same substance, the MBC (S. aureus ATCC 29213; ATCC 29213, 4 h) was 4 µg/mL, the MIC (S. aureus ATCC 29213; ATCC 29213, 18 h) was 4 µg/mL and the MBC ([3]; ATCC 13076, 4 h) was 4 µg/mL. For the same substance, the MIC ([3]; ATCC 13076, 18 h) was 4 µg/mL, the MIC (E. coli 1F28 (tet(X4)); [11]) was 2 µg/mL and the MBC (E. coli 1F28 (tet(X4)); [12]) was 8 µg/mL. For the same substance, the MIC (E. coli B3-1 (tet(X4)); [11]) was 2 µg/mL, the MBC (E. coli B3-1 (tet(X4)); [12]) was 2 µg/mL and the MIC (E. faecalis A4 (VRE); [11]) was 4 µg/mL. For the same substance, the MBC (E. faecalis A4 (VRE); [12]) was 8 µg/mL, the MIC (E. coli 1F16) was 4 µg/mL and the MIC (E. coli 2W25) was 4 µg/mL. For the same substance, the MIC (Shigella 1F25) was 8 µg/mL, the “activity in the presence of monovalent cations (Na^+ and K^+)” value (E. coli 1F28 [4]) was “not any loss of activity” and the “H (hydrophobicity, percent of acetonitrile at HPLC elution)” value [5] was 36.513 percent acetonitrile. For the same substance, the “activity reduction after thermal treatment” value (E. coli 1F28 [6]; 121 °C, 1 h) was 50%, the “activity reduction after pH treatment” value (E. coli 1F28 [6]; alkaline environment pH = 12, 1 h, readjusted to pH 7.2) was 50% and the “remaining antibacterial activity after pH treatment” value (E. coli 1F28 [6]; pH 2 to 10 for 1 h, readjusted to pH 7.2) was “completely retained its activity”. For the same substance, the “remaining antibacterial activity after thermal treatment” value (E. coli 1F28 [6]; treatment under 100 °C for 1 h) was “completely retained its activity”, the “MIC increase with exogenous CL” value (E. coli 1F28 [7]; 16 μg/mL CL, E. coli 1F28) was 16 fold and the “MIC increase with exogenous PG” value (E. coli 1F28 [7]; 16 μg/mL PG, E. coli 1F28) was 16 fold. For the same substance, the “effect of exogenous LPS on antibacterial activity” value (E. coli 1F28 [7]; LPS from E. coli O111:B4, 0 to 128 μg/mL, MIC against E. coli 1F28, chequerboard broth microdilution) was “weakened WRK-12 activity in a dose-dependent manner”, the “MIC increase with ROS scavenger NAC” value (E. coli 1F28 [7]; NAC 2.5 mM, E. coli 1F28, three independent experiments) was 6 fold and the “effect of exogenous PE on antibacterial activity” value (E. coli 1F28 [7]; PE 0 to 16 μg/mL, E. coli 1F28) was “mildly impaired WRK-12 activity”. For the same substance, the “membrane potential (ΔΨ), DiSC3(5) fluorescence” value (E. coli 1F28 [8]) was “significantly dissipated membrane potential”, the “ROS production, DCFH-DA fluorescence” value (E. coli 1F28 [9]) was “triggered the production of ROS in a concentration-dependent manner” and the “inhibition of biofilm formation” value (E. coli 1F28 biofilm; 0.5 μg/mL, 37 °C, crystal violet OD570) was “significant inhibition effect”. The biofilm mass (E. coli 1F28 biofilm; 2 μg/mL or higher, crystal violet staining) was “drastically reduced” and the solubility [10] was “highest solubility”.
